Laboratory results published in ChEMBL document CHEMBL2094269, “WEHI/Eskitis Trypanosoma b. brucei screening data”.
Where “and” joins values, the source holds several entries; their conditions need not be identical. Identical values can stand only once.

Assays:
[1] = tested on: Trypanosoma brucei brucei; assay: microbe, parasite or virus in culture; type: functional, organism-based, STIB 795
Description: DNDI: Inhibition of Human African Trypanosomiasis (HAT), STIB 795, in vitro

[2] = DNDI: Cytotoxicity against human MRC-5 lung fibroblast cells.; conditions: IC50

| SMILES | IC50 ([1]; Trypanosoma brucei, STIB 795) [µM] | IC50 [2] [µM] | IC50 [1] |
| --- | --- | --- | --- |
| CN(C)CCNC(=O)c1ccc(COc2ccc(Cl)cc2Cl)cc1 | 3.41 | > 20.8 |  |
| CCN(CC)CCNc1cc(C)nc2c1C(=O)C(=O)C=C2N1CCCCC1 | 4.07 | 6.25 |  |
| N=c1n(CCO)c2ccccc2n1CCOc1ccc(Cl)cc1Cl | 2.63 | 8.93 |  |
| COc1cc(CNCCO)cc(Br)c1OCc1ccccc1 | 4.73 | > 41.7 |  |
| CC[n+]1c(/C=C/c2ccc(N(C)C)cc2)sc2cc(NC(C)=O)ccc21 | 0.049 | > 20.8 |  |
| Cc1cc2c(c(=O)o1)C(c1ccc(Br)s1)C(C#N)=C(N)O2 (stereo unspecified) |  | > 41.7 | 5.05 µM and > 10.4 µM |
| COc1c(S(=O)(=O)c2ccc(C)c(F)c2)cnc2ccc(Cl)cc12 | 3.1 | > 20.8 |  |
| Cc1cc(F)ccc1NC(=O)Nc1ccc(-c2noc(C3CCC3)n2)cc1 | 4.73 | > 41.7 |  |
| Cc1cc(-c2ccco2)c(C#N)c(SCC(=O)c2ccc(O)c(O)c2)n1 | 0.791 | > 41.7 | 0.756 µM |
| COc1cc2nc(-c3cccnc3)nc(N3CCC[C@H]3CO)c2cc1OC | 5.31 | > 20.8 |  |
| CCN(CC)c1ccc(/C=N\NC(=O)Cn2nnc3ccccc32)c(O)c1 | 0.551 | > 41.7 |  |
| O=C(CN1C(=O)S/C(=C/c2ccccc2Cl)C1=O)N1CCOCC1 | 5.03 | > 41.7 |  |
| CN(CCO)CC(O)Cn1c2ccc(Cl)cc2c2cc(Cl)ccc21 (stereo unspecified) | 4.95 | > 20.8 |  |
| Cc1ccc(C(=O)ON=C(/C=C/c2ccccc2)/C=C/c2ccccc2)cc1 | 1.65 | > 41.7 |  |
| CC(CON1C(N)=NC(N)=NC1(C)C)Cc1cccc(Br)c1 (stereo unspecified) | ≤ 3.67 | > 4.17 |  |
| CN(CCCNC(=O)c1n[nH]c2c1COc1ccccc1-2)C1CCCCC1 | 5.06 | > 20.8 |  |
| COc1ccc(C2=Nn3c([n+](C)c4cc(C)c(C)cc43)SC2)cc1OC | 5.33 | > 20.8 |  |
| Brc1ccc(-c2nc(N3CCNCC3)c3ccccc3n2)cc1 | 2.83 | > 10.4 |  |

| SMILES | IC50 ([1]; Trypanosoma brucei, STIB 795) [µM] | IC50 [2] [µM] | IC50 [1] |
| --- | --- | --- | --- |
| Cc1cc(C)c(OCCCCCCN2CCNCC2)c(Br)c1 | 1.02 | > 20.8 |  |
| CCOC(=O)c1c(CN2CCOCC2)oc2c1C(=O)C(=O)c1ccccc1-2 | 0.846 | > 20.8 |  |
| CCCCN1/C(=C/c2cc[n+](CC)c3ccccc23)C=Cc2cc(C)ccc21 | 0.831 | > 10.4 |  |
| CCCC[n+]1c(/C=C2/C=CN(CC)c3ccc(C)cc32)ccc2ccccc21 | 0.362 | > 4.17 |  |
| O=C(O/N=C(/NCc1ccccc1)c1ccc(Cl)cc1)c1cccs1 | 0.47 | > 41.7 |  |
| CCOC(=O)N1CCN(C2=C(NC(C)=O)C(=O)c3ccccc3C2=O)CC1 | 5.36 | > 41.7 |  |
| COc1cc(C(=O)Nc2nc(-c3ccccn3)cs2)cc(OC)c1OC | 4.6 | > 41.7 |  |
| CCc1c(C)nc(-n2nc(C)cc2NC(=O)c2ccccc2Cl)[nH]c1=O | 2.88 | > 20.8 |  |
| O=C1CC(Sc2nc(-c3ccco3)cc(C(F)(F)F)n2)C2COC1O2 (stereo unspecified) |  | > 20.8 | 12 µM and 5.11 µM |
| CC(Cc1ccco1)NC(=O)c1cccc(NC(=O)C2=CSCCO2)c1 (stereo unspecified) | 5.79 | > 41.7 |  |
| Cc1cc(C2=CC(C)(C)NC(C)(C)C2)sc1C1=CC(C)(C)NC(C)(C)C1 | 4.82 | > 41.7 |  |
| CCC(/C=C1\Sc2ccccc2N1C)=C\c1sc2ccccc2[n+]1C | 0.403 | 2.28 |  |
| CC[n+]1c(/C=C/c2ccc(N(C)C)cc2)sc2ccc(C(=O)OC)cc21 | 0.131 | > 20.8 |  |
| CCC1(C)CC(CCNCc2ccccc2O)(c2ccc(F)cc2)CCO1 (stereo unspecified) | 4.73 | > 41.7 |  |
| Oc1c(CN2CCC(Cc3ccccc3)CC2)cc(Cl)c2cccnc12 | 4.68 | > 20.8 |  |
| O=C(NC(c1ccccc1F)c1ccc2cccnc2c1O)c1ccccc1 (stereo unspecified) | 6.12 | > 4.17 |  |
| CCN1/C(=C/C=C/C2=[N+](C)c3ccc(C)cc3C2(C)C)C=Cc2ccccc21 | 0.239 | > 4.17 |  |
